Measurements taken from patent US20240174723A1, “STAPLED ANTIMICROBIAL PEPTIDES (STAMPS) AND USES THEREOF” (Lytica Therapeutics, Inc., priority 2021, published 2024).
Values after ≈ are worked out from the molar mass of the structure shown. Positions of bridges follow the written chain, without caps; N, C: chain ends. Non-standard residues stand in square brackets, D forms with d. Residues, ends and D or L forms follow the SMILES beside them. Phe(4-F) = N[C@@H](Cc1ccc(F)cc1)C(=O)O; S5 = C=CCCC[C@](C)(N)C(=O)O; Dab = NCC[C@H](N)C(=O)O; Dap = NC[C@H](N)C(=O)O

Columns and labels:
[1] = test system: E. coli; type: cell-based, Escherichia coli
Summary of the method: (§1)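 MIC is the minimum StAMP concentration showing no visible growth after 20-24 h incubation at 37° C. Serially diluted peptides met bacteria regrown 3-4 h after overnight culture, at 5×10^5 CFU/ml final, in Mueller-Hinton broth or its cation-adjusted form, per a modified CLSI microdilution.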

[2] = test system: A. baumannii; type: cell-based, Acinetobacter baumannii
Summary of the method: as §1

[3] = test system: P. aeruginosa; type: cell-based, Pseudomonas aeruginosa
Summary of the method: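 MIC taken as lowest peptide concentration with no visible growth after 20-24 h at 37 °C. Peptide serial dilutions from water stocks met P. aeruginosa inoculum (5×10^5 CFU/ml final) in MHB or MHB II, per a CLSI-adapted microbroth protocol.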

[4] = test system: K. pneumoniae; type: cell-based, Klebsiella pneumoniae
Summary of the method: as §1

[5] = test system: S. aureus; type: cell-based, Staphylococcus aureus
Summary of the method: as §1

[6] = in vitro; type: cell-based; details: human
Procedure: Cell culture: RPTEC were maintained in MEM media supplemented with growth factors. HEPG2 cell line was maintained in Eagle's Minimum Essential Medium (EMEM) supplemented with fetal bovine serum to a final concentration of 10%.
90 minute cytotoxicity assay: Cells were plated in a 96-well format, and after overnight incubation, media was replaced with fresh media. Serial dilutions of StAMPs from a 5 mg/mL water stock, or vehicle, were added to the cells in a final volume of 100 μl. After incubating at 37° C. for 90 min, 50 μl of cell culture media was transferred to a clear 96-well plate, incubated with 50 μl of lactate dehydrogenase (LDH) assay reagent for 10 min, and absorbance measured at 490 nm on a microplate reader.
Renal toxicity was measured after 90 minutes of incubation, while liver toxicity was measured after 48 hours of incubation with StAMPs. N/A=not tested. The following apply to all peptides (i.e., StAMPs) listed in Tables A-C: Crosslinks (X^1—X^2 and X^3—X^4): (alk); N-terminus: —NH2; C-terminus: amidated with —NH2; counterion: Cl^−. The following apply to all peptides (i.e., StAMPs) listed in Table D: Crosslinks (X^1—X^2 and X^3—X^4): (alk); N-terminus: —NH2; C-terminus: as shown in table; counterion: Cl^−.
StAMP Micelle Formulation: DSPE-MPEG(2000) was suspended in buffered saline at 50-100 mg/mL overnight. StAMP stock solutions at 5-20 mg/mL in buffered saline were prepared and equal volumes of micelle and StAMP stock solution were mixed at the desired StAMP:Lipid ratio. Suspensions were allowed to sit for 5-10 minutes at room temperature before being used in in vitro and in vivo assays.
In Table E, the StAMP is StAMP 4 (Table A) and “Lipid”=DSPE-MPEG(2000).

[7] = in vitro; type: cell-based; details: human, Inhibitory Concentration at 50% Cytotoxicity (IC50) Human Liver Cells (HepG2)
Summary of the method: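 Cytotoxicity read by CellTiter-Glo luminescence after 48 h at 37 °C exposure to serially diluted StAMPs or vehicle. HepG2 cells were grown in EMEM plus 10% FBS and given 4 h to attach before dosing; peptides came from a 5 mg/mL aqueous stock.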

Row | Minimum Inhibitory Concentration (MIC) E. coli [1] [µg/mL] | Minimum Inhibitory Concentration (MIC) A. baumannii [2] [µg/mL] | Minimum Inhibitory Concentration (MIC) P. aeruginosa [3] [µg/mL] | Minimum Inhibitory Concentration (MIC) K. pneumoniae [4] [µg/mL] | Minimum Inhibitory Concentration (MIC) S. aureus [5] [µg/mL] | IC50 at 90 min [6] [µg/mL] | Structure (SMILES) | IC50 at 48 hours [7] [µg/mL]
1 | 2 | 2 | 2 | 4 | >64 | 113 (≈ 44.6 µM) | CC(C)[C@@H]1NC(=O)[C@@](C)(NC(=O)[C@H](C)NC(=O)[C@H](CCCCN)NC(=O)CNC(=O)[C@H](Cc2ccccc2)NC(=O)[C@H](CCCCN)NC(=O)[C@H](CCCCN)NC(=O)[C@H](CCCCN)NC(=O)[C@H](CCCCN)NC(=O)[C@H](CCCCN)NC(=O)[C@]2(C)CCCC=CCCC[C@](C)(NC(=O)CN)C(=O)NCC(=O)N[C@@H](CCN)C(=O)N[C@@H](Cc3ccccc3)C(=O)N2)CCCC=CCCC[C@@](C)(C(=O)N[C@@H](C)C(=O)N[C@@H](CCCCN)C(=O)N[C@@H](CCCCN)C(N)=O)NC(=O)[C@H](CCC(=O)O)NC(=O)CNC1=O [compound 37] (H-G[S5]G[Dab]F[S5]KKKKKFGKA[S5]VGE[S5]AKK-NH2; staple 2-6, 16-20) | 
2 | 2 | 2 | 4 | 4 | >64 | 86 (≈ 32.4 µM) | CC(C)[C@@H]1NC(=O)[C@H](C(C)C)NC(=O)[C@@](C)(NC(=O)[C@H](C)NC(=O)[C@H](CCCCN)NC(=O)CNC(=O)[C@H](Cc2ccc(F)cc2)NC(=O)[C@H](CCCCN)NC(=O)[C@H](CCCCN)NC(=O)[C@H](CCCCN)NC(=O)[C@H](CCCCN)NC(=O)[C@H](Cc2c[nH]cn2)NC(=O)[C@]2(C)CCCC=CCCC[C@](C)(NC(=O)CN)C(=O)NCC(=O)N[C@@H](CCCCN)C(=O)N[C@@H](Cc3ccc(F)cc3)C(=O)N2)CCCC=CCCC[C@@](C)(C(=O)N[C@@H](C)C(=O)N[C@@H](CCCCN)C(=O)N[C@@H](CCCCN)C(N)=O)NC(=O)[C@H](CCC(=O)O)NC1=O [compound 29] (H-G[S5]GK[Phe(4-F)][S5]HKKKK[Phe(4-F)]GKA[S5]VVE[S5]AKK-NH2; staple 2-6, 16-20) | 
3 | 64 | 64 | 32 | >64 | >64 |  | CC(C)[C@@H]1NC(=O)[C@@](C)(NC(=O)[C@H](C)NC(=O)[C@H](CCCCN)NC(=O)CNC(=O)[C@H](Cc2ccccc2)NC(=O)[C@H](CCCCN)NC(=O)[C@H](CCCCN)NC(=O)[C@H](CN)NC(=O)[C@H](CCCCN)NC(=O)[C@H](CN)NC(=O)[C@]2(C)CCCC=CCCC[C@](C)(NC(=O)CN)C(=O)NCC(=O)N[C@@H](CCCCN)C(=O)N[C@@H](Cc3ccccc3)C(=O)N2)CCCC=CCCC[C@@](C)(C(=O)N[C@@H](C)C(=O)N[C@@H](CCCCN)C(=O)N[C@@H](CCCCN)C(=O)NCC(=O)NCC(=O)N[C@@H](CCC(=O)O)C(N)=O)NC(=O)[C@H](CCC(=O)O)NC(=O)CNC1=O [compound 83] (H-G[S5]GKF[S5][Dap]K[Dap]KKFGKA[S5]VGE[S5]AKKGGE-NH2; staple 2-6, 16-20) | > 200
4 | 16 | 4 | 16 | >64 | >64 |  | CC(C)[C@@H]1NC(=O)[C@@](C)(NC(=O)[C@H](CO)NC(=O)[C@H](CCCCN)NC(=O)CNC(=O)[C@H](Cc2ccccc2)NC(=O)[C@H](CCCCN)NC(=O)[C@H](CCCCN)NC(=O)[C@H](CCCCN)NC(=O)[C@H](CCCCN)NC(=O)[C@H](CCCCN)NC(=O)[C@]2(C)CCCC=CCCC[C@](C)(NC(=O)CN)C(=O)NCC(=O)N[C@@H](CCCCN)C(=O)N[C@@H](Cc3ccccc3)C(=O)N2)CCCC=CCCC[C@@](C)(C(=O)N[C@@H](C)C(=O)N[C@@H](CCCCN)C(=O)N[C@@H](CCCCN)C(=O)NCC(=O)NCC(=O)N[C@@H](CCC(=O)O)C(N)=O)NC(=O)[C@H](CCC(=O)O)NC(=O)CNC1=O [compound 92] (H-G[S5]GKF[S5]KKKKKFGKS[S5]VGE[S5]AKKGGE-NH2; staple 2-6, 16-20) | > 200
5 | 2 | 2 | 4 | 4 | >64 |  | CC(C)[C@@H]1NC(=O)[C@@](C)(NC(=O)[C@H](C)NC(=O)[C@H](CCCCN)NC(=O)CNC(=O)[C@H](Cc2ccccc2)NC(=O)[C@H](CCCCN)NC(=O)[C@H](CCCCN)NC(=O)[C@H](CCCCN)NC(=O)[C@H](CCCCN)NC(=O)[C@H](CCCCN)NC(=O)[C@]2(C)CCCC=CCCC[C@](C)(NC(=O)CN)C(=O)NCC(=O)N[C@@H](CN)C(=O)N[C@@H](Cc3ccccc3)C(=O)N2)CCCC=CCCC[C@@](C)(C(=O)N[C@@H](C)C(=O)N[C@@H](CCCCN)C(=O)N[C@@H](CCCCN)C(N)=O)NC(=O)[C@H](CCC(=O)O)NC(=O)CNC1=O [compound 45] (H-G[S5]G[Dap]F[S5]KKKKKFGKA[S5]VGE[S5]AKK-NH2; staple 2-6, 16-20) | 104 (≈ 41.2 µM)
6 | 2 | 2 | 4 | 8 | 64 |  | CC(C)[C@@H]1NC(=O)[C@@](C)(NC(=O)[C@H](C)NC(=O)[C@H](CCCCN)NC(=O)CNC(=O)[C@H](Cc2ccccc2)NC(=O)[C@H](CCCCN)NC(=O)[C@H](CCCCN)NC(=O)[C@H](CCCCN)NC(=O)[C@H](CCCCN)NC(=O)[C@H](CN)NC(=O)[C@]2(C)CCCC=CCCC[C@](C)(NC(=O)CN)C(=O)NCC(=O)N[C@@H](CCCCN)C(=O)N[C@@H](Cc3ccccc3)C(=O)N2)CCCC=CCCC[C@@](C)(C(=O)N[C@@H](C)C(=O)N[C@@H](CCCCN)C(=O)N[C@@H](CCCCN)C(N)=O)NC(=O)[C@H](CCC(=O)O)NC(=O)CNC1=O [compound 46] (H-G[S5]GKF[S5][Dap]KKKKFGKA[S5]VGE[S5]AKK-NH2; staple 2-6, 16-20) | 299 (≈ 119 µM)
7 | 8 | 8 | 4 | >64 | >64 |  | CC(C)[C@@H]1NC(=O)[C@@](C)(NC(=O)[C@H](C)NC(=O)[C@H](CCCCN)NC(=O)CNC(=O)[C@H](Cc2ccccc2)NC(=O)[C@H](CCCCN)NC(=O)[C@H](CCCCN)NC(=O)[C@H](CCCCN)NC(=O)[C@H](CCCCN)NC(=O)[C@H](CN)NC(=O)[C@]2(C)CCCC=CCCC[C@](C)(NC(=O)CN)C(=O)NCC(=O)N[C@@H](CCCCN)C(=O)N[C@@H](Cc3ccccc3)C(=O)N2)CCCC=CCCC[C@@](C)(C(=O)N[C@@H](C)C(=O)N[C@@H](CCCCN)C(=O)N[C@@H](CCCCN)C(=O)NCC(=O)NCC(=O)N[C@@H](CCC(=O)O)C(N)=O)NC(=O)[C@H](CCC(=O)O)NC(=O)CNC1=O [compound 80] (H-G[S5]GKF[S5][Dap]KKKKFGKA[S5]VGE[S5]AKKGGE-NH2; staple 2-6, 16-20) | > 200
